What all share (assay type): cell-based
Assay [1] deals with T1, human M1 receptor (Homo sapiens, UniProt P11229).
T1 sequence (P11229 1-460): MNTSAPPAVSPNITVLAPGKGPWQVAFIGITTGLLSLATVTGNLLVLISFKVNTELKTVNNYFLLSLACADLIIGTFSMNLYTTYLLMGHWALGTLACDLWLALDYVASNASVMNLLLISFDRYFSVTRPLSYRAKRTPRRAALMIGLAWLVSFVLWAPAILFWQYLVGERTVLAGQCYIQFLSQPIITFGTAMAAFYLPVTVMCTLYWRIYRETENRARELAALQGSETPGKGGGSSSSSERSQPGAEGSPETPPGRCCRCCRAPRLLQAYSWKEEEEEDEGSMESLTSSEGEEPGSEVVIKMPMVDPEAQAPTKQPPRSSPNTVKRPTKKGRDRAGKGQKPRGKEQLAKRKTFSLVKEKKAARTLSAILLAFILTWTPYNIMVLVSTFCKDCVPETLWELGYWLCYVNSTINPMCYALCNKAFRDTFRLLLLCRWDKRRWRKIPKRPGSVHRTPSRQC
The experiment in a line: In vitro functional assay of muscarinic acetylcholine receptor activity (aequorin calcium flux, antagonist mode vs EC80 acetylcholine), M1. The method, boiled down: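 Antagonism at M1 was measured as a concentration-dependent reduction of the EC80 acetylcholine-evoked aequorin luminescence, from which IC50 was derived. Human M1 CHO-K1 aequorin cells were first loaded with 5 uM coelenterazine h for 4 h and exposed to compound for 30 min at room temperature.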
Background: Calcium assays in cells follow changes in intracellular calcium, usually with a dye or a luminescent sensor.

The target of assay [2] is T2, M2 (Homo sapiens, UniProt P08172).
T2 sequence (P08172 1-466): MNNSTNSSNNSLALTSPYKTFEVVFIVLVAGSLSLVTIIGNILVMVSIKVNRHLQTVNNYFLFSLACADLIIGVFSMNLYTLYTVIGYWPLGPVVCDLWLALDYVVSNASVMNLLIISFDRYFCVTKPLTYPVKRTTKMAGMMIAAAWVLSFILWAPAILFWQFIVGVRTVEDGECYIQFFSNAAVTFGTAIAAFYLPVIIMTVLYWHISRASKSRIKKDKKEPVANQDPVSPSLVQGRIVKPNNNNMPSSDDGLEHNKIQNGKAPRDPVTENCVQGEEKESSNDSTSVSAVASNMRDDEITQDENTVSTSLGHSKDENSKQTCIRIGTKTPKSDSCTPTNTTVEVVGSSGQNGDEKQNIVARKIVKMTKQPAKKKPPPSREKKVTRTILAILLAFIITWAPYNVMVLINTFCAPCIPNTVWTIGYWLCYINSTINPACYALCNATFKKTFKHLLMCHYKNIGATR
The experiment in a line: In vitro functional assay of muscarinic acetylcholine receptor activity, M2.

For assay [3], the target named is M3 (Homo sapiens, UniProt P20309). The experiment in a line: In vitro functional assay of muscarinic acetylcholine receptor activity, M3.
Where [4] appears, read: antagonist IC50 at M3, read-out: M3 IC50.
Where [5] appears, read: antagonist IC50 at M2, read-out: M2 IC50.
The mark [6] stands for this setting: CHO-K1 cells stably expressing human M1 receptor with Aequorin, decrease in EC80 acetylcholine response, read-out: M1 IC50.

Structures are written as SMILES. Read-outs that look alike come from different tables or passages of the source.

Sequence of M3 (P20309 whole entry): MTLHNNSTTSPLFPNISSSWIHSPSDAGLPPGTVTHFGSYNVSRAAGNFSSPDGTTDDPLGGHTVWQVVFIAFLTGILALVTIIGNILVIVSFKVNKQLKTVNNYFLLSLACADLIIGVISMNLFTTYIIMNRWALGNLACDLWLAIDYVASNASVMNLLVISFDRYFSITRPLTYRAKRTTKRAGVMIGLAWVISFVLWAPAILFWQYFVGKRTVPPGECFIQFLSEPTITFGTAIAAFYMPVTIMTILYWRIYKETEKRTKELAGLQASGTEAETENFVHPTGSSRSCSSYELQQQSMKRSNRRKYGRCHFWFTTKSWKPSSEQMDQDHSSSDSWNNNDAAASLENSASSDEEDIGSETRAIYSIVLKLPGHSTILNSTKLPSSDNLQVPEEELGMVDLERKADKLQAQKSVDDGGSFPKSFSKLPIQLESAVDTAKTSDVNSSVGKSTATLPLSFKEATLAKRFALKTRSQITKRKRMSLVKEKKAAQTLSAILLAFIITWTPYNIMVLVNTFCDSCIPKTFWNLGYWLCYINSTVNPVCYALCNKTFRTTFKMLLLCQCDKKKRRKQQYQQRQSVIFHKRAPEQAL

Broadly, the IC50 is the concentration that inhibits the measured activity by half. As to `N#Cc1ccc(N2C3CCC2CN(C(=O)COCCc2cccc4nccnc24)C3)nc1` [Example 43, 6-(3-{2-[2-(quinoxalin-5-yl)ethoxy]acetyl}-3,8-diazabicyclo[3.2.1]octan-8-yl)pyridine-3-carbonitrile], the IC50 is 0.1 to 1 µM in assay [1], 1 to 10 µM in assay [2] and more than 10 µM in assay [3].

`N#Cc1ccc(N2C3CCC2CN(C(=O)CCCCc2cccc4ncsc24)C3)nc1` [Example 44, 6-{3-[5-(1,3-benzothiazol-7-yl)pentanoyl]-3,8-diazabicyclo[3.2.1]octan-8-yl}pyridine-3-carbonitrile]: the IC50 was less than 0.1 µM in assay [1], 0.1 to 1 µM in assay [2] and 1 to 10 µM in assay [3] (setting [4]).

As to `N#Cc1ccc(N2[C@@H]3CC[C@H]2CN(C(=O)[C@H]2C[C@H](Nc4cccc5ncccc45)C2)C3)nc1` [Example 45, 6-(3-{3-[(quinolin-5-yl)amino]cyclobutanecarbonyl}-3,8-diazabicyclo[3.2.1]octan-8-yl)pyridine-3-carbonitrile], the IC50 in assay [1] is 0.1 to 1 µM; in assay [2] (setting [5]) it was 1 to 10 µM; in assay [3] (setting [4]), more than 10 µM.

Take `N#Cc1ccc(N2C3CCC2CN(C(=O)N2CC(=Cc4cccc5ncccc45)C2)C3)nc1` [Example 46, 6-(3-{3-[(quinolin-5-yl)methylidene]azetidine-1-carbonyl}-3,8-diazabicyclo-[3.2.1]octan-8-yl)pyridine-3-carbonitrile]: the half-inhibitory concentration (IC50) lay in the range of 0.1 to 1 µM in assay [1], 1 to 10 µM in assay [2] (setting [5]) and 1 to 10 µM in assay [3] (setting [4]).

Turning to `O=C(COCc1cccc2cnccc12)N1C[C@H]2CC[C@@H](C1)N2c1ccc(F)cn1` [Example 47, 1-((1R,5S)-8-(5-fluoropyridin-2-yl)-3,8-diazabicyclo[3.2.1]octan-3-yl)-2-(isoquinolin-5-ylmethoxy)ethan-1-one], the IC50 in assay [1] (setting [6]) is 1 to 10 µM; in assay [2] (setting [5]), 1 to 10 µM; in assay [3] (setting [4]), more than 10 µM.

Take `O=C(CCOCc1cccc2ncccc12)N1C[C@H]2CC[C@@H](C1)N2c1ccc(F)cn1` [Example 48, 1-((1R,5S)-8-(5-fluoropyridin-2-yl)-3,8-diazabicyclo[3.2.1]octan-3-yl)-3-(quinolin-5-ylmethoxy)propan-1-one]: the IC50 is 0.1 to 1 µM in assay [1], 1 to 10 µM in assay [2] (setting [5]) and more than 10 µM in assay [3] (setting [4]).

With `O=C(CCOCc1cccc2cnccc12)N1C[C@H]2CC[C@@H](C1)N2c1ccc(F)cn1` [Example 49, 1-((1R,5S)-8-(5-fluoropyridin-2-yl)-3,8-diazabicyclo[3.2.1]octan-3-yl)-3-(isoquinolin-5-ylmethoxy)propan-1-one], the 50% inhibitory concentration (IC50) in assay [1] was 0.1 to 1 µM; in assay [2] (setting [5]), 1 to 10 µM; in assay [3] (setting [4]), more than 10 µM.

Consider `O=C(N1CC(Oc2cccc3ncccc23)C1)N1C[C@H]2CC[C@@H](C1)N2c1ccc(F)cn1` [Example 50, ((1R,5S)-8-(5-fluoropyridin-2-yl)-3,8-diazabicyclo[3.2.1]octan-3-yl)(3-(quinolin-5-yloxy)azetidin-1-yl)methanone], for which the concentration for half-maximal inhibition (IC50) in assay [1] (setting [6]) was 1 to 10 µM; in assay [2] (setting [5]), 1 to 10 µM; in assay [3] (setting [4]) it was more than 10 µM.

As for `Cc1cc(F)cnc1N1[C@@H]2CC[C@H]1CN(C(=O)CCCc1cccc3ncccc13)C2` [Example 52, 1-((1R,5S)-8-(5-fluoro-3-methylpyridin-2-yl)-3,8-diazabicyclo[3.2.1]octan-3-yl)-4-(quinolin-5-yl)butan-1-one], the IC50 in assay [1] is 0.1 to 1 µM; in assay [2], 0.1 to 1 µM; in assay [3] (setting [4]), 1 to 10 µM.

As for `Cc1cc(F)cnc1N1CCN(C(=O)CCCc2cccc3ncccc23)CC1` [Example 55, 1-(4-(5-fluoro-3-methylpyridin-2-yl)piperazin-1-yl)-4-(quinolin-5-yl)butan-1-one], the IC50 in assay [1] (setting [6]) was less than 0.1 µM; in assay [2] (setting [5]) it was 0.1 to 1 µM; in assay [3] (setting [4]) it was 1 to 10 µM.

In the case of `CC1CN(c2ccncc2)CCN1C(=O)CCCc1cccc2ncccc12` (stereo not drawn) [Example 56, 1-(2-methyl-4-(pyridin-4-yl)piperazin-1-yl)-4-(quinolin-5-yl)butan-1-one], the figures for the IC50 in assay [1] (setting [6]), in assay [2] (setting [5]) and in assay [3] (setting [4]) were 0.1 to 1 µM, 0.1 to 1 µM and 1 to 10 µM, respectively.

As for `O=C(CCCc1cccc2ncccc12)N1CC2CC1CN2c1ccncc1` (stereo not drawn) [Example 57, 1-(5-(pyridin-4-yl)-2,5-diazabicyclo[2.2.1]heptan-2-yl)-4-(quinolin-5-yl)butan-1-one], the values for the IC50 in assay [1] (setting [6]), in assay [2] (setting [5]) and in assay [3] (setting [4]) were 0.1 to 1 µM, 1 to 10 µM and 1 to 10 µM, respectively.

Regarding `CC1CN(C(=O)CCCc2cccc3ncccc23)CCN1c1ccncc1` (stereo not drawn) [Example 60, 1-(3-methyl-4-(pyridin-4-yl)piperazin-1-yl)-4-(quinolin-5-yl)butan-1-one], the IC50 in assay [1] (setting [6]) was less than 0.1 µM; in assay [2] (setting [5]) it was 0.1 to 1 µM; in assay [3] (setting [4]), 1 to 10 µM.

As for `O=C([C@H]1C[C@H](Oc2cccc3ncsc23)C1)N1CC2CCC(C1)N2c1ccc(F)cn1` [Example 63, ((1r,3R)-3-(benzo[d]thiazol-7-yloxy)cyclobutyl)((1R,5S)-8-(5-fluoropyridin-2-yl)-3,8-diazabicyclo[3.2.1]octan-3-yl)methanone], the IC50 was 1 to 10 µM in assay [1] (setting [6]), 0.1 to 1 µM in assay [2] and more than 10 µM in assay [3] (setting [4]).

Regarding `O=C([C@H]1C[C@H](Oc2cccc3ncsc23)C1)N1CC2CCC(C1)N2c1ncc(Cl)cn1` [Example 64, ((1r,3R)-3-(benzo[d]thiazol-7-yloxy)cyclobutyl)((1R,5S)-8-(5-chloropyrimidin-2-yl)-3,8-diazabicyclo[3.2.1]octan-3-yl)methanone], the figures for the IC50 in assay [1] (setting [6]), in assay [2] (setting [5]) and in assay [3] (setting [4]) were more than 10 µM, 1 to 10 µM and 1 to 10 µM, respectively.

`Cc1cc(N2C3CCC2CN(C(=O)[C@H]2C[C@H](Oc4cccc5ncsc45)C2)C3)ccn1` [Example 65, ((1r,3R)-3-(benzo[d]thiazol-7-yloxy)cyclobutyl)((1R,5S)-8-(2-methylpyridin-4-yl)-3,8-diazabicyclo[3.2.1]octan-3-yl)methanone]: the IC50 in assay [1] (setting [6]) is 1 to 10 µM; in assay [2] (setting [5]), 1 to 10 µM; in assay [3] (setting [4]), more than 10 µM.

Take `O=C(CCCc1cccc2ncccc12)N1CCN(c2ccncc2F)CC1` [Example 67, 1-(4-(3-fluoropyridin-4-yl)piperazin-1-yl)-4-(quinolin-5-yl)butan-1-one]: the IC50 in assay [1] (setting [6]) is 0.1 to 1 µM; in assay [2] (setting [5]), more than 10 µM; in assay [3] (setting [4]), 1 to 10 µM.

On to `N#Cc1cnccc1N1CCN(C(=O)CCCc2cccc3ncccc23)CC1` [Example 68, 4-(4-(4-(quinolin-5-yl)butanoyl)piperazin-1-yl)nicotinonitrile], for which the half-inhibitory concentration (IC50) in assay [1] (setting [6]) is 1 to 10 µM; in assay [2] (setting [5]) it was more than 10 µM; in assay [3] (setting [4]), 1 to 10 µM.

In the case of `COc1cc(N2CCN(C(=O)CCCc3cccc4ncccc34)CC2)ccn1` [Example 69, 1-(4-(2-methoxypyridin-4-yl)piperazin-1-yl)-4-(quinolin-5-yl)butan-1-one], the IC50 in assay [1] (setting [6]) is 0.1 to 1 µM; in assay [2] (setting [5]), more than 10 µM; in assay [3] (setting [4]) it was 1 to 10 µM.

As for `N#Cc1cc(N2CCN(C(=O)CCCc3cccc4ncccc34)CC2)ccn1` [Example 70, 4-(4-(4-(quinolin-5-yl)butanoyl)piperazin-1-yl)picolinonitrile], the IC50 in assay [1] (setting [6]) was less than 0.1 µM; in assay [2] (setting [5]), 0.1 to 1 µM; in assay [3] (setting [4]), 1 to 10 µM.

The values are drawn from patent US11512090B2, “Muscarinic acetylcholine M1 receptor antagonists” (PIPELINE THERAPEUTICS, INC., priority 2018, dated 2022).
